Data taken from US11945798B2, “Substituted aminopyridine compounds as EGFR inhibitors” (YUHAN CORPORATION, priority 2021, dated 2024).

Columns and labels:
[1] = molecular target: EGFR del19/C797S (Homo sapiens, UniProt P00533, C797S/DEL746-750); experiment: Biochemical EGFR kinase assay (Lance Ultra TR-FRET), del19/C797S; details: Km ATP; read-out: IC50 del19/C797S (nM) Km ATP
Description: (§1) Biochemical EGFR kinase assays were conducted using Lance Ultra time-resolved fluorescence resonance energy transfer (TR-FRET) technology from Perkin-Elmer. Compounds of the invention were initially diluted to 20 mM in 100% DMSO for storage and made into kinase buffer solution to create a compound concentration ranging from 0.003 μM and 10 μM.
(§2) Each kinase reactions were incubated at room temperature for 1 hour and then stopped by the addition of 4 μL of stop solution (10 mM EDTA). The specific Europium-labeled-anti-phosphopeptide antibody (PerkinElmer, AD0069) diluted in LANCE detection buffer was then added to a final concentration of 2 nM. After 60 minutes incubation at room temperature the LANCE signal was measured on an EnVision Multilabel Reader (Perkin-Elmer). Excitation wavelength was set at 320 nm and emission monitored at 615 nm (donor) and 665 nm (acceptor). The IC50 values were determined using GraphPad prism software (GraphPad Software, Inc., San Diego, CA, USA).

[2] = molecular target: EGFR del19/T790M/C797S (Homo sapiens, UniProt P00533, C797S/DEL746-750/T790M); experiment: Biochemical EGFR kinase assay (Lance Ultra TR-FRET), del19/T790M/C797S; details: Km ATP; read-out: IC50 del19/T790M/C797S (nM) Km ATP
EGFR del19/T790M/C797S, sequence (P00533 with tags, fused parts or gaps DEL746-750/T790M/C797S): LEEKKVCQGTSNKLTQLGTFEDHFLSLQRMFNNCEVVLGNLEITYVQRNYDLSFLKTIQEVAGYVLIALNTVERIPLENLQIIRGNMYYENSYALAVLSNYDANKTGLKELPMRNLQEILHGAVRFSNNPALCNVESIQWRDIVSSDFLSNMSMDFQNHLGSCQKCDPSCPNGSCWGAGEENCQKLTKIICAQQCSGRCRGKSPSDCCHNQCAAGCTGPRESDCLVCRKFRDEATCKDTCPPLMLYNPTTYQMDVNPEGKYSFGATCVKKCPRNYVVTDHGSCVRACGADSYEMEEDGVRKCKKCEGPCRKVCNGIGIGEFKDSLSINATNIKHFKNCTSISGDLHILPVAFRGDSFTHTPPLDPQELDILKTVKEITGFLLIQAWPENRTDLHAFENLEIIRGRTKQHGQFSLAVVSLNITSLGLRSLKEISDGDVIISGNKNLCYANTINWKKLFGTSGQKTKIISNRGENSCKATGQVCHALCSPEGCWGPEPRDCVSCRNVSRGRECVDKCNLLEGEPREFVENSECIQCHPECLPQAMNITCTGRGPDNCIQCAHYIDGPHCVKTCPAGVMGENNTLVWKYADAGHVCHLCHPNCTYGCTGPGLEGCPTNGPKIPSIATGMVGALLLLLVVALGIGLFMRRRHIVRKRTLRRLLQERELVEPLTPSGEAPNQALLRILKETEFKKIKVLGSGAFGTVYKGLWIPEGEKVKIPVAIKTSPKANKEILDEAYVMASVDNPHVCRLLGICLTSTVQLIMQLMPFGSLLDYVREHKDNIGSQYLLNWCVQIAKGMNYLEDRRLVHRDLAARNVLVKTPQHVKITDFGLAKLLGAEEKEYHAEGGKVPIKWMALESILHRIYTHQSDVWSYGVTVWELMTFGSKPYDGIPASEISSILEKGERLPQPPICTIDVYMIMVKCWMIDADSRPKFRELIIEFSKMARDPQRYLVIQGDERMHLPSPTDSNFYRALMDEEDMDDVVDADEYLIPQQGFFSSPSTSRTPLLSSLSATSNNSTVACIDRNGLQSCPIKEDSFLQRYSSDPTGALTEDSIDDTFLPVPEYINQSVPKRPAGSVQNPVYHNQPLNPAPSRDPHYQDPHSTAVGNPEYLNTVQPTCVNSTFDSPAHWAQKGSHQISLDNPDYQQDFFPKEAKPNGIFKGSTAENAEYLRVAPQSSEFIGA
Description: as §1, §2

[3] = molecular target: EGFR L858R/T790M/C797S (Homo sapiens, UniProt P00533, C797S/L858R/T790M); experiment: Biochemical EGFR kinase assay (Lance Ultra TR-FRET), L858R/T790M/C797S; details: Km ATP; read-out: IC50 L858R/T790M/C797S (nM) Km ATP
EGFR L858R/T790M/C797S, sequence (P00533 25-1210 T790M/C797S/L858R): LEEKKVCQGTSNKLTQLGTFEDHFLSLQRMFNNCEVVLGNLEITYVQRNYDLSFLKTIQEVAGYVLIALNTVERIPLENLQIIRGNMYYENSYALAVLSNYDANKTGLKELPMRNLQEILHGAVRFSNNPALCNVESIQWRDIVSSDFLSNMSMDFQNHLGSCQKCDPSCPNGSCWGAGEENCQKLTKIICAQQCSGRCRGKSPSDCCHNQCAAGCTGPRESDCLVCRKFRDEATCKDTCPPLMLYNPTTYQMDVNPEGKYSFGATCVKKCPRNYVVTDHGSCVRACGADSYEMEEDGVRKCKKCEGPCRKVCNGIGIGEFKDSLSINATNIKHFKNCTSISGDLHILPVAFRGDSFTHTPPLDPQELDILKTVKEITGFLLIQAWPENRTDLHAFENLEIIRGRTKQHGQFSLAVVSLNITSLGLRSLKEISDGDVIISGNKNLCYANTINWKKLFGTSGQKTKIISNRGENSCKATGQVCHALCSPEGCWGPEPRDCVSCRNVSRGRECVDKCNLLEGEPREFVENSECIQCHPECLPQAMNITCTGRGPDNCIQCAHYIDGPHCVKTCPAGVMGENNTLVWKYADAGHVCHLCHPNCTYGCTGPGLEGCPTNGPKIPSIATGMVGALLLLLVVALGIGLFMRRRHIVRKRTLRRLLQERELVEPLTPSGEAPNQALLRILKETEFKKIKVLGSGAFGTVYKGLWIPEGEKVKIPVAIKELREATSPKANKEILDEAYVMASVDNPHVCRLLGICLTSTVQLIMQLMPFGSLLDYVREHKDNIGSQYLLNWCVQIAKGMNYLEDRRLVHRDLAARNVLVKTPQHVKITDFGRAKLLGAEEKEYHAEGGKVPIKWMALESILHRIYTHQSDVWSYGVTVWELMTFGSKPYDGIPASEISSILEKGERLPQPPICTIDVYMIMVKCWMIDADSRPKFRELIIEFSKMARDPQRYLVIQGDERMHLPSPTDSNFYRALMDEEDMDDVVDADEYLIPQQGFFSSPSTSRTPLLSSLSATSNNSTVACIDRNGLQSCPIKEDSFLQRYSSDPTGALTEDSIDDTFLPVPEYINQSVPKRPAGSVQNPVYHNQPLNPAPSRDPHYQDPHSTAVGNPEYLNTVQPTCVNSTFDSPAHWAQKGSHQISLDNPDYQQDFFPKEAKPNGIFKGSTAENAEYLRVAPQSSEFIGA
Description: as §1, §2

[4] = molecular target: EGFR wildtype (WT) (Homo sapiens, UniProt P00533); experiment: Biochemical EGFR kinase assay (Lance Ultra TR-FRET), wildtype; details: Km ATP; read-out: IC50 WT (nM) Km ATP
EGFR wildtype (WT), sequence (P00533 25-1210): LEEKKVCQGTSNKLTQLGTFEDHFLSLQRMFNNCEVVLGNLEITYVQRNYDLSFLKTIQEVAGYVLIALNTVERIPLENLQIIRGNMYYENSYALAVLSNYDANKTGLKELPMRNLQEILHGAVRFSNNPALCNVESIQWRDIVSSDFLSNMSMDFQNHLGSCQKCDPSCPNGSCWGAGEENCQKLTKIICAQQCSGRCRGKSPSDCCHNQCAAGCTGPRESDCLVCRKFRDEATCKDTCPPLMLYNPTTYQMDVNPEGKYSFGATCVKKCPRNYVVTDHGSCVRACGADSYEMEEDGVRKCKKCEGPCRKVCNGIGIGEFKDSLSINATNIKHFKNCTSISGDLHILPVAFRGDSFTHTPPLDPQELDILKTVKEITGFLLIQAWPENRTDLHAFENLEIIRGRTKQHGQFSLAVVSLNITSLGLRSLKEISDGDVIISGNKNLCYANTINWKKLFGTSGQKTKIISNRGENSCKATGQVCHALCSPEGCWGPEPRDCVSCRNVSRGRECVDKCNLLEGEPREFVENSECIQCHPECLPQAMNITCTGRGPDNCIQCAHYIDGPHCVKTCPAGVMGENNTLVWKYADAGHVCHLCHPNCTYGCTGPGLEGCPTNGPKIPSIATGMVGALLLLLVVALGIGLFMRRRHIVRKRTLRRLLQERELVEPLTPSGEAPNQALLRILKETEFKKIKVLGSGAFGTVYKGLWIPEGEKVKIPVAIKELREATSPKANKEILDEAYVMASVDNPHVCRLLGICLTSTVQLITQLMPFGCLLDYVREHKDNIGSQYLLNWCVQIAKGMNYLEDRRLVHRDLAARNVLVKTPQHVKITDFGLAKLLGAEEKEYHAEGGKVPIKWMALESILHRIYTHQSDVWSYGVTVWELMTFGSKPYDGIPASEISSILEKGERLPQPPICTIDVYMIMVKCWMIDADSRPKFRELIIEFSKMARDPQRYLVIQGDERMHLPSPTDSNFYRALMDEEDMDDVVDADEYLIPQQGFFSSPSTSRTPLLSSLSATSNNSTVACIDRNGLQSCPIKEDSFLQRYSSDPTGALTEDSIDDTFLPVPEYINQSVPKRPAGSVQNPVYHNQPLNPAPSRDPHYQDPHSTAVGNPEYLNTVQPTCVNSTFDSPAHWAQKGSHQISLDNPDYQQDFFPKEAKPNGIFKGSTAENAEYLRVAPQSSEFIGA
Description: as §1, §2

EGFR del19/C797S, sequence (P00533 with tags, fused parts or gaps DEL746-750/C797S): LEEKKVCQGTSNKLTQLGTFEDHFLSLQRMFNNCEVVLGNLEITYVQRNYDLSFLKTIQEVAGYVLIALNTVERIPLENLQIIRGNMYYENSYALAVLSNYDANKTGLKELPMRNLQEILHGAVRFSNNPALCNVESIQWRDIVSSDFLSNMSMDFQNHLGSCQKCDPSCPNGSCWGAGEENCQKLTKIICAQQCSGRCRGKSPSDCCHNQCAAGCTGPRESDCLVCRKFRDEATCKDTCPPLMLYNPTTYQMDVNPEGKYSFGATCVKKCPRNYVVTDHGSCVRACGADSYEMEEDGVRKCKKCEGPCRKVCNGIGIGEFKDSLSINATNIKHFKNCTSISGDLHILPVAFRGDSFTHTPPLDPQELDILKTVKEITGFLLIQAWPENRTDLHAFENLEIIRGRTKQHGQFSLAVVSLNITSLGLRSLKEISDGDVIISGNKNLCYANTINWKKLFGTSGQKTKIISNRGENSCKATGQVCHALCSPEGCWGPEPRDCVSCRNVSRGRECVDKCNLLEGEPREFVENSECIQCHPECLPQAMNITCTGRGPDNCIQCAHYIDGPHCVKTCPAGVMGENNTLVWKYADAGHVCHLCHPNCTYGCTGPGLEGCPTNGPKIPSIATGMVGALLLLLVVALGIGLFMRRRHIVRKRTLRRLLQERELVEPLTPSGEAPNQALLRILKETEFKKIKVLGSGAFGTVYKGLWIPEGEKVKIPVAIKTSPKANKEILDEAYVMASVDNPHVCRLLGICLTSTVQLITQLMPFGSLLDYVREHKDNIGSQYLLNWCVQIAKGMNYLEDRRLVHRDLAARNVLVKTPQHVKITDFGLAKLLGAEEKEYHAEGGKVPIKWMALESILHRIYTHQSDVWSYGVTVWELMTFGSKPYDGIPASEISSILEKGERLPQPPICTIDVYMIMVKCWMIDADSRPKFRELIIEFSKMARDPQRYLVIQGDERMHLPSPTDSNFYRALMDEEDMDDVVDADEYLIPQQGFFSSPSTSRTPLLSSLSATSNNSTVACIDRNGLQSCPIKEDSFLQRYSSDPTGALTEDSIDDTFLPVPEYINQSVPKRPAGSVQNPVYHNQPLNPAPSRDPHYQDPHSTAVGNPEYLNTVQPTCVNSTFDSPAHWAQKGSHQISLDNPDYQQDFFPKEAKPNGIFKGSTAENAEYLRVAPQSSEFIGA

Row | IC50 [1] [nM] | IC50 [2] [nM] | IC50 [3] [nM] | IC50 [4] [nM] | SMILES
1 | 536 | 72 |  |  | O=C(c1cnc(Nc2ccnc(-c3cnn(S(=O)(=O)C4CC4)c3)n2)cc1NC1CC1)C1CC1 [Example 2, Cyclopropyl(4-(cyclopropylamino)-6-((2-(1-(cyclopropylsulfonyl)-1H-pyrazol-4-yl)pyrimidin-4-yl)amino)pyridin-3-yl)methanone]
2 | 232 | 0.9 | 5.4 | 4200 | O=C(c1cnc(Nc2ccnc(-c3cnn(S(=O)(=O)C4CC4)c3)n2)cc1NCCF)C1CC1 [Example 3, Cyclopropyl(6-((2-(1-(cyclopropylsulfonyl)-1H-pyrazol-4-yl)pyrimidin-4-yl)amino)-4-((2-fluoroethyl)amino)pyridin-3-yl)methanone]
3 | 83.6 | 1.3 | 11.6 | 2400 | O=C(c1cnc(Nc2ccnc(-c3cnn(S(=O)(=O)C4CC4)c3)n2)cc1NCCCCF)C1CC1 [Example 4, Cyclopropyl(6-((2-(1-(cyclopropylsulfonyl)-1H-pyrazol-4-yl)pyrimidin-4-yl)amino)-4-((4-fluorobutyl)amino)pyridin-3-yl)methanone]
4 | 132 | 1.8 | 18 | 2970 | O=C(c1cnc(Nc2ccnc(-c3cnn(S(=O)(=O)C4CC4)c3)n2)cc1NCCCC(F)F)C1CC1 [Example 5, Cyclopropyl(6-((2-(1-(cyclopropylsulfonyl)-1H-pyrazol-4-yl)pyrimidin-4-yl)amino)-4-((4,4-difluorobutyl)amino)pyridin-3-yl)methanone]
5 | 78 | 0.6 | 4.5 | 890 | O=C(c1cnc(Nc2ccnc(-c3cnn(S(=O)(=O)C4CC4)c3)n2)cc1NCCC1CCOC1)C1CC1 (stereo not drawn) [Example 6, Cyclopropyl(6-((2-(1-(cyclopropylsulfonyl)-1H-pyrazol-4-yl)pyrimidin-4-yl)amino)-4-((2-(tetrahydrofuran-3-yl)ethyl)amino)pyridin-3-yl)methanone]
6 | 49.2 | 0.5 | 2.7 | 426 | C[C@H](CCO)Nc1cc(Nc2ccnc(-c3cnn(S(=O)(=O)C4CC4)c3)n2)ncc1C(=O)C1CC1 [Example 7, (R)-Cyclopropyl(6-((2-(1-(cyclopropylsulfonyl)-1H-pyrazol-4-yl)pyrimidin-4-yl)amino)-4-((4-hydroxybutan-2-yl)amino)pyridin-3-yl)methanone]
7 | 553 | 2.1 | 13.7 | 1170 | O=C(c1cnc(Nc2ccnc(-c3cnn(S(=O)(=O)C4CC4)c3)n2)cc1NCC1CCCCO1)C1CC1 (stereo not drawn) [Example 10, Cyclopropyl(6-((2-(1-(cyclopropylsulfonyl)-1H-pyrazol-4-yl)pyrimidin-4-yl)amino)-4-(((tetrahydro-2H-pyran-2-yl)methyl)amino)pyridin-3-yl)methanone]
8 | 58.9 | 0.4 | 2.3 | 188 | C[C@@H](O)CCNc1cc(Nc2ccnc(-c3cnn(S(=O)(=O)C4CC4)c3)n2)ncc1C(=O)C1CC1 [Example 11, (R)-Cyclopropyl(6-((2-(1-(cyclopropylsulfonyl)-1H-pyrazol-4-yl)pyrimidin-4-yl)amino)-4-((3-hydroxybutyl)amino)pyridin-3-yl)methanone]
9 | 58.2 | 0.4 | 0.6 | 228 | CC(O)C(C)(C)Nc1cc(Nc2ccnc(-c3cnn(S(=O)(=O)C4CC4)c3)n2)ncc1C(=O)C1CC1 (stereo not drawn) [Example 12, Cyclopropyl(6-((2-(1-(cyclopropylsulfonyl)-1H-pyrazol-4-yl)pyrimidin-4-yl)amino)-4-((3-hydroxy-2-methylbutan-2-yl)amino)pyridin-3-yl)methanone]
10 | 459 | 4.7 | 31.9 | 3400 | CN(C)CCNc1cc(Nc2ccnc(-c3cnn(S(=O)(=O)C4CC4)c3)n2)ncc1C(=O)C1CC1 [Example 14, Cyclopropyl(6-((2-(1-(cyclopropylsulfonyl)-1H-pyrazol-4-yl)pyrimidin-4-yl)amino)-4-((2-(dimethylamino)ethyl)amino)pyridin-3-yl)methanone]
11 | 1 | 10.9 | 15.5 |  | O=C(c1cnc(Nc2ccnc(-c3cnn(S(=O)(=O)C4CC4)c3)n2)cc1NCc1cnn(CCF)c1)C1CC1 [Example 17, Cyclopropyl(6-((2-(1-(cyclopropylsulfonyl)-1H-pyrazol-4-yl)pyrimidin-4-yl)amino)-4-(((1-(2-fluoroethyl)-1H-pyrazol-4-yl)methyl)amino)pyridin-3-yl)methanone]
12 | 1 | 13.5 | 17.2 |  | O=C(c1cnc(Nc2ccnc(-c3cnn(S(=O)(=O)C4CC4)c3)n2)cc1NCC1CCN(CC2CC2)CC1)C1CC1 [Example 18, Cyclopropyl(4-(((1-(cyclopropylmethyl)piperidin-4-yl)methyl)amino)-6-((2-(1-(cyclopropylsulfonyl)-1H-pyrazol-4-yl)pyrimidin-4-yl)amino)pyridin-3-yl)methanone]
13 | 159 | 3.1 | 3.8 | 682 | CN(C)Cc1ccc(CNc2cc(Nc3ccnc(-c4cnn(S(=O)(=O)C5CC5)c4)n3)ncc2C(=O)C2CC2)cn1 [Example 19, Cyclopropyl(6-((2-(1-(cyclopropylsulfonyl)-1H-pyrazol-4-yl)pyrimidin-4-yl)amino)-4-(((6-((dimethylamino)methyl)pyridin-3-yl)methyl)amino)pyridin-3-yl)methanone]
14 | 242 | 9 |  | 796 | O=C(c1cnc(Nc2ccnc(-c3cnn(S(=O)(=O)C4CC4)c3)n2)cc1NC[C@H]1CC[C@H](Cn2cccn2)CC1)C1CC1 [Example 44, (4-((((1r,4r)-4-((1H-Pyrazol-1-yl)methyl)cyclohexyl)methyl)amino)-6-((2-(1-(cyclopropylsulfonyl)-1H-pyrazol-4-yl)pyrimidin-4-yl)amino)pyridin-3-yl)(cyclopropyl)methanone]
15 | 363 | 9.8 | 9.4 |  | CN(C)CC1CCC(CNc2cc(Nc3ccnc(-c4cnn(C5CCOC5)c4)n3)ncc2C(=O)C2CC2)CC1 (stereo not drawn) [Example 62, Cyclopropyl(4-((((1r,4r)-4-((dimethylamino)methyl)cyclohexyl)methyl)amino)-6-((2-(1-(tetrahydrofuran-3-yl)-1H-pyrazol-4-yl)pyrimidin-4-yl)amino)pyridin-3-yl)methanone]
16 | 225 | 14.9 |  | 1140 | CC(C)Nc1cc(Nc2ccnc(-c3cnn(S(=O)(=O)C4CC4)c3)n2)ncc1C(=O)NCC(F)F [Example 78, 6-((2-(1-(Cyclopropylsulfonyl)-1H-pyrazol-4-yl)pyrimidin-4-yl)amino)-N-(2,2-difluoroethyl)-4-(isopropylamino)nicotinamide]
17 | 24.6 | 2.8 |  | 76.2 | CN(C)C[C@H]1CC[C@H](CNc2cc(Nc3ccnc(-c4cnn(S(=O)(=O)C5CC5)c4)n3)ncc2C(=O)N2CC(F)(F)C2)CC1 [Example 82, (6-((2-(1-(Cyclopropylsulfonyl)-1H-pyrazol-4-yl)pyrimidin-4-yl)amino)-4-((((1r,4r)-4-((dimethylamino)methyl)cyclohexyl)methyl)amino)pyridin-3-yl)(3,3-difluoroazetidin-1-yl)methanone]
